Read-outs that look alike come from different tables or passages of the source.
Tested on: cultured human mast cells (CHMC), IgE-induced degranulation
Test: CHMC low cell density IgE activation: tryptase assay
Type: cell-based
Description: Inhibition of degranulation was measured at both low and high cell density by quantifying the release of the granule specific factors tryptase, histamine and hexosaminidase. Inhibition of release and/or synthesis of lipid mediators was assessed by measuring the release of leukotriene LTC4 and inhibition of release and/or synthesis of cytokines was monitored by quantifying TNF-α, IL-6 and IL-13. Tryptase and hexosaminidase were quantified using fluorogenic substrates as described in their respective examples. […] The protocols of the various assays are provided below.
A second phase is performed to convert the expanded CD34-negative progenitor cells into differentiated mucosal mast cells. These mucosal cultured human mast cells (“CHMC”) are derived from CD34+ cells isolated from umbilical cord blood and treated to form a proliferated population of CD34-negative progenitor cells, as described above. […] Also, the cytokine composition of the medium was modified such that it contained SCF (200 ng/mL) and recombinant human IL-6 (200 ng/mL; Peprotech, Catalog No. 200-06 reconstituted to 100 ug/mL in sterile 10 mM acetic acid) (“CM/SCF/IL-6 medium”).
Pellet CHMC cells (980 rpm, 10 min) and resuspend in pre-warmed MT. Add 65 ul of cells to each 96-well plate. Depending on the degranulation activity for each particular CHMC donor, load 1000-1500 cells/well. Mix four times followed by a 1 hr incubation at 37° C. […] Stimulate cells by adding 25 ul of 6× anti-IgE solution to the appropriate plates. Add 25 ul MT to un-stimulated control wells. Mix twice following addition of the anti-IgE. Incubate at 37° C. for 30 minutes. […] Spin plates at 1000 rpm for 10 min to pellet cells. Transfer 25 ul of supernatant to a 96-well black bottom plate and add 100 ul of freshly diluted tryptase substrate solution to each well. Incubate plates at room temperature for 30 min.
In Table 1, all reported values are IC50s (in μM). […] In Table 1, all reported values are IC50s (in μM).

[1] = CHMC low cell density, 3pt, read-out: LD Tryptase, CHMC, IgE, 3pt
[2] = CHMC low cell density, 8pt, read-out: LD Tryptase, CHMC, IgE, 8pt
[3] = low cell density CHMC, 8-point, read-out: LD Tryptase, CHMC, IgE, 8pt
[4] = low cell density CHMC, 3pt, read-out: LD Tryptase, CHMC, IgE, 3pt
[5] = low cell density CHMC, 8pt, read-out: LD Tryptase, CHMC, IgE, 8pt

| Compound | IC50 [1] | IC50 [2] | IC50 [3] | other results |
| --- | --- | --- | --- | --- |
| Cc1nc2cc(Nc3ncc(F)c(Nc4ccc5c(n4)NC(=O)C(C)(C)O5)n3)ccc2n1CCCO [Compound 951, N4-(2,2-Dimethyl-3-oxo-4H-5-pyrido[1,4]oxazin-6-yl)-5-fluoro-N2-[1-(3-hydroxypropyl)-2-methylbenzimidazol-5-yl]-2,4-pyrimidinediamine] | < 10 µM | < 10 µM | – | – |
| CC1(C)Oc2ccc(Nc3ncc(F)c(Nc4ccc5c(n4)NC(=O)C(C)(C)O5)n3)nc2NC1=O [Compound 693, N2,N4-Bis(2,2-dimethyl-3-oxo-4H-5-pyrid[1,4]oxazin-6-yl)-5-fluoro-2,4-pyrimidinediamine] | < 10 µM | – | – | – |
| N4-(2,2-Dimethyl-3-oxo-4H-benz[1,4]oxazin-6-yl)-N2-(1-methyl-2-trifluoromethylbenzimidazol-5-yl)-2,4-pyrimidinediamine [Compound 913] | – | < 10 µM | – | – |
| Cn1nc(N)c2cc(Nc3ncc(F)c(Nc4ccc5c(n4)NC(=O)C(C)(C)O5)n3)ccc21 [Compound 837, N2-(3-A mino-1-methylindazol-5-yl)-N4-(2,2-dimethyl-3-oxo-4H-5-pyrid[1,4]oxazin-6-yl)-5-fluoro-2,4-pyrimidinediamine] | < 10 µM | < 10 µM | – | – |
| O=C1CSc2ccc(Nc3nc(Cl)ncc3F)cc2N1 [Compound 313, N2-Chloro-5-fluoro-N4-(3-oxo-2H,4H-benzo[1,4]thiazin-6-yl)-4-pyrimidinea mine] | – | – | – | IC50 [4]: < 10 µM |
| CN(c1ccc2c(c1)OCCO2)c1nc(NN)ncc1F [Compound 533, N4-(3,4-Ethylenedioxyphenyl)-5-fluoro-N4-methyl-2-hydrazine-4-pyrimidinea mine] | > 10 µM | – | – | – |
| N4-(2,2-Dimethyl-3-oxo-4H-benz[1,4]oxazin-6-yl)-5-fluoro-N2-{1-methyl-2-[(methylsulfonyl)methyl]benzimidazol-5-yl}-2,4-pyrimidinediamine [Compound 967] | < 10 µM | < 10 µM | – | – |
| CC1C(=O)Nc2cc(Nc3nc(Nc4cccc(O)c4)ncc3F)ccc2S1(=O)=O (racemic) [Compound 284, racemic-5-Fluoro-N2-[3-hydoxyphenyl]-N4-(2-methyl-1,1,3-trioxo-2H,4H-benzo[1,4]thiazin-6-yl)-2,4-pyrimidinediamine] | – | – | – | IC50 [5]: < 10 µM |
| CC1(C)COc2ccc(Nc3nc(Cl)ncc3F)cc2N1 [Compound 320, N2-Chloro-N4-(3,3-dimethyl-1,4-benzoxazin-6-yl)-5-fluoro-pyrimidinea mine] | – | – | – | IC50 [4]: < 10 µM |
| CNC(=O)COc1cccc(Nc2ncc(F)c(Nc3ccc4c(c3)NC(=O)CS4(=O)=O)n2)c1 [Compound 305, 5-Fluoro-N2-[3-(N-methylamino)carbonylmethyleneoxyphenyl]-N4-(1,1,3-trioxo-2H,4H-benzo[1,4]thiazin-6-yl)-2,4-pyrimidinediamine] | – | – | – | IC50 [5]: < 10 µM |
| CC1C(=O)Nc2cc(Nc3nc(Cl)ncc3F)ccc2S1(=O)=O (racemic) [Compound 317, racemic-N2-Chloro-5-fluoro-N4-(2-methyl-1,1,3-trioxo-2H,4H-benzo[1,4]thiazin-6-yl)-4-pyrimidinea mine] | – | – | – | IC50 [4]: > 10 µM |
| C[C@@H]1Oc2ccc(Nc3nc(NC4=CC=CC(=CNC(=O)OC(C)(C)C)C4)ncc3F)cc2NC1=O [Compound 1276] | – | – | – | IC50 (Homo sapiens, Mast cell, low cell density CHMC, 3pt, read-out: LD Tryptase, CHMC, IgE, 3pt): < 10 µM; IC50 (Homo sapiens, Mast cell, low cell density CHMC, 8pt, read-out: LD Tryptase, CHMC, IgE, 8pt): < 10 µM |
| Cn1c(=O)[nH]c2cc(Nc3ncc(F)c(Nc4ccc5c(n4)NC(=O)C(C)(C)O5)n3)ccc21 [Compound 908, N4-(2,2-Dimethyl-3-oxo-4H-5-pyrid[1,4]oxazin-6-yl)-N2-(2,3-dihydro-1-methyl-2-oxo-benzimidazol-5-yl)-5-fluoro-2,4-pyrimidinediamine] | < 10 µM | < 10 µM | – | – |
| CC1(C)Oc2ccc(Nc3nc(Nc4ccc5c(cnn5CCCN5C(=O)CCC5=O)c4)ncc3F)cc2NC1=O [Compound 855, N4-(2,2-Dimethyl-3-oxo-4H-benz[1,4]oxazin-6-yl)-5-fluoro-N2-[1-[3-(N-succinimidopropyl)]indazol-5-yl]-2,4-pyrimidinediamine] | < 10 µM | < 10 µM | – | – |
| CNC(=O)COc1c(C)cc(Nc2ncc(F)c(Nc3ccc4c(c3)OCCO4)n2)cc1C [Compound 572, N2-[3,5-dimethyl-4-(N-methylamino)carbonylmethyleneoxyphenyl]-N4-(3,4-ethylenedioxyphenyl)-5-fluoro-2,4-pyrimidinediamine] | < 10 µM | < 10 µM | – | – |

Now from value to compound, other results behind:

| IC50 [1] | IC50 [2] | IC50 [3] | Compound | other results |
| --- | --- | --- | --- | --- |
| – | – | > 10 µM | CC1(C)Oc2ccc(Nc3nc(Nc4ccc(-c5ncco5)cc4)ncc3F)nc2NC1=O [Compound 1035, N4-(2,2-Dimethyl-3-oxo-4H-5-pyrid[1,4]oxazin-6-yl)-5-fluoro-N2-[4-(oxazol-2-yl)phenyl]-2,4-pyrimidinediamine] | – |
| – | – | < 10 µM | CCOC(=O)N1CCN(c2ccc(Nc3ncc(F)c(Nc4ccc5c(n4)NC(=O)C(C)(C)O5)n3)cc2)CC1 [Compound 1077, N4-(2,2-Dimethyl-3-oxo-4H-5-pyrid [1,4]oxazin-6-yl)-N2-[4-(4-ethoxycarbonylpiperazino)phenyl]-5-fluoro-2,4-pyrimidinediamine] | – |
| < 10 µM | < 10 µM | – | CCN(CC)Cc1nc2cc(Nc3ncc(F)c(Nc4ccc5c(n4)NC(=O)C(C)(C)O5)n3)ccc2n1C [Compound 974, N2-[2-(N,N-Diethylaminomethyl)-1-methylbenzimidazol-5-yl]-N4-(2,2-dimethyl-3-oxo-4H-5-pyrido[1,4]oxazin-6-yl)-5-fluoro-2,4-pyrimidinediamine] | – |
| – | – | < 10 µM | CCOC(=O)N1CCN(c2ccc(Nc3ncc(F)c(Nc4ccc5c(n4)NC(=O)CO5)n3)cc2)CC1 [Compound 1072, N2-[4-(4-Ethoxycarbonylpiperazino)phenyl]-5-fluoro-N4-(3-oxo-2H,4H-5-pyrid[1,4]oxazin-6-yl)-2,4-pyrimidinediamine] | – |
| – | – | < 10 µM | CC(=O)N1CCN(c2cccc(Nc3ncc(F)c(Nc4ccc5c(n4)NC(=O)C(C)(C)O5)n3)c2)CC1 [Compound 1076, N2-[3-(4-Acetylpiperazino)phenyl]-N4-(2,2-dimethyl-3-oxo-4H-5-pyrid[1,4]oxazin-6-yl)-5-fluoro-2,4-pyrimidinediamine] | – |
| – | < 10 µM | – | Cn1c(CN2CCOCC2)nc2cc(Nc3ncc(F)c(Nc4ccc5c(n4)NC(=O)C(C)(C)O5)n3)ccc21 [Compound 958, N4-(2,2-Dimethyl-3-oxo-4H-5-pyrido[1,4]oxazin-6-yl)-5-fluoro-N2-[1-methyl-2-(4-morpholinomethyl)benzimidazol-5-yl]-2,4-pyrimidinediamine] | – |
| – | – | < 10 µM | COc1cc(Nc2ncc(F)c(Nc3ccc4c(n3)NC(=O)[C@H](C)O4)n2)cc(OC)c1OC [Compound 1082, (S)-5-Fluoro-N4-(2-methyl-3-oxo-2H,4H-5-pyrid[1,4]oxazin-6-yl)-N2-(3,4,5-trimethoxyphenyl)-2,4-pyrimidinediamine] | IC50 (low cell density CHMC, 3-point, read-out: LD Tryptase, CHMC, IgE, 3pt): < 10 µM |
| – | – | < 10 µM | COc1cccc(Nc2ncc(F)c(Nc3ccc4c(n3)NC(=O)CO4)n2)c1C [Compound 1061, 5-Fluoro-N2-(3-methoxy-2-methylphenyl)-N4-(3-oxo-2H,4H-5-pyrid[1,4]oxazin-6-yl)-2,4-pyrimidinediamine] | – |
| – | – | < 10 µM | CNC(=O)COc1cccc(Nc2ncc(F)c(Nc3ccc4c(n3)NC(=O)CO4)n2)c1C [Compound 1068, 5-Fluoro-N2-[2-methyl-3-(N-methylamino)carbonylmethyleneoxyphenyl]-N4-(3-oxo-2H,4H-5-pyrid[1,4]oxazin-6-yl)-2,4-pyrimidinediamine] | – |
| – | – | < 10 µM | CC1(C)Oc2ccc(Nc3nc(Nc4cccc(N5CCOCC5)c4)ncc3F)nc2NC1=O [Compound 1078, N4-(2,2-Dimethyl-3-oxo-4H-5-pyrid[1,4]oxazin-6-yl)-5-fluoro-N2-(3-morpholinophenyl)-2,4-pyrimidinediamine] | – |
| – | – | < 10 µM | O=C1COc2ccc(Nc3nc(Nc4cccc(N5CCOCC5)c4)ncc3F)nc2N1 [Compound 1073, 5-Fluoro-N2-(3-morpholinophenyl)-N4-(3-oxo-2H,4H-5-pyrid[1,4]oxazin-6-yl)-2,4-pyrimidinediamine] | – |
| < 10 µM | < 10 µM | – | CC(C)c1cccc(Nc2ncc(F)c(Nc3ccc4c(n3)NC(=O)C(C)(C)O4)n2)c1 [Compound 1003, N4-(2,2-Dimethyl-3-oxo-4H-5-pyrid[1,4]oxazin-6-yl)-5-fluoro-N2-(3-isopropylphenyl)-2,4-pyrimidinediamine] | – |
